Experiments:
[1] = target: T1, CtHtrA (Chlamydia trachomatis serovar D, UniProt P18584); experiment: CtHtrA protease inhibition assay; format: biochemical; details: for IC50: IC50 against CtHtrA; for Relative Potency against CtHtrA: [IC50 of control]/[IC50 test compound]
T1 construct: made in house; host or cells: E. coli BL21(DE3), pET22b
Description: The inhibitory activity of compounds 2a–g against CtHtrA was evaluated. […] As these compounds are reportedly covalent inhibitors of serine proteases, a true IC50 is unable to be calculated. Instead, the residual activity of the protease is monitored over time in response to a range of compound concentrations, and an IC50 value is interpolated from a dose–response curve (see Figures S2–S4 and Tables S1 and S2). This IC50 value is then compared to a positive control (JO146 was used for 2a–g, and 2g was used for 6a–h), giving the ‘relative potency’. This is the established method for assessing CtHtrA inhibitory potency. […] This effect may be due to depth restrictions within the S1 subpocket, as kinetic studies on the rates of protease inhibition in HLE were reduced by larger C-3 alkoxy substituents. Chain branching (iso-propyl and sec-butyl substituents) increased the activity, resulting in a 1.4-fold increase for 2e over 2b and a 2.8-fold improvement for 2g over 2c.
CtHtrA was expressed using an procedure adapted from the literature. Recombinant E. coli BL21(DE3) pET22b was grown in LB media containing 100 ug/mL ampicillin to an OD600 of 0.5-0.6 in 5 × 400 mL batches at 37 °C. Isopropyl β-D-1-thioglactopyranoside (1 M, 400 µL, 1 mM final concentration) was added to each flask and incubated at 30 °C with shaking at 150 rpm for an additional 2.5 h. The culture was centrifuged at 4000× g for 15 min at 4 °C, and the cell pellet was harvested and resuspended in lysis buffer (50 mM phosphate, 10 mM imidazole, 500 mM NaCl, 0.1% Triton X-100, 10% glycerol). Lysozyme was added to the suspended cells and was sonicated in 15 cycles of 15 s, with one minute between cycles while maintaining 4 °C, and then centrifuged at 8000× g for 20 min to remove any debris, retaining the supernatant for protein purification.
TALON® metal affinity resin (Takara cat no. 635652, 5 mL) was added to each lysate tube and washed sequentially with lysis buffer (2 × 45 mL) and stringency buffer (4 × 45 mL) and then eluted with elution buffer (2 × 5 mL), allowing incubations at 4 °C for 20 min per wash, and centrifuging at 2500× g and 4 °C between washes to pellet the resin. The eluates were dialyzed in Tris buffer (pH 7.0, 50 mM, 4 L) with magnesium chloride (20 mM) at 4 °C five times over 24 h, with a minimum of three hours per dialysis change. Protein expression and isolation were confirmed with SDS-PAGE Coomassie stained gel, which was examined for the band at the correct size, and a BCA assay to confirm purified protein concentration prior to use.
CtHtrA was added to 25 wells in a black 96-well plate (40–80 µL, 10 µL increments), to which Tris-HCl buffer (50 mM, pH 7.0 with 20 mM MgCl2) was added to bring the total volume to 90 µL for 10 wells and 85 µL for the remaining 15. JO146 (10 µM, 5 µL) was added to 5 wells and JO146 (1 µM, 5 µL) was added to another 5 wells, with DMSO (5 µL) being added to the remaining 5 as a control. The plate was incubated at 37 °C for 10 min before substrate (MCA-ENLHLPLPIIFK-DNP, 10 µL, 1 mg/mL, 50% isopropanol in buffer) was added and analyzed in a TECAN Infinite Pro M200 plate reader with an excitation wavelength of 340 nm and fluorescence measured at 405 nm with four reads per well at 60 s intervals. A minimum volume of CtHtrA granting a fluorescence change of 300 min^−1 was used for subsequent assay.
The determined appropriate volume of CtHtrA in buffer was added to a 96-well non-transparent black plate and diluted to 85 µL with buffer solution. Drug or control (5 µL) at a maximum of 20% DMSO/80% buffer was added to the appropriate well with DMSO controls, and the plate was incubated for 10 min to allow activation by the protein. MCA-ENLHLPLPIIFK-DNP (Mimotopes, Australia, 1 mg/mL, 10 µL) was added and immediately monitored on a TECAN M200 Infinite plate reader at 37 °C every 60 s for 30 min, using the same wavelengths as for the activity evaluation. […]

[2] = system: HEp-2 cells; experiment: MTS cell viability assay, HEp-2 cells; format: cell-based, human; details: 24 h; for effect on HEp-2 cell viability: any tested concentration (31.25, 62.5, 125 µM)
Description: The cytotoxic effects of the 4-chloroisocoumarin compounds 2a–g and 6a–h (24 h) were tested against HEp-2 and McCoy B cells using the MTS cell viability assay. HEp-2 and McCoy B cells were selected, as these are routinely used for the cultivation of chlamydial species, and low cytotoxicity against host cells is required to evaluate the anti-chlamydial properties of a test compound [27].
HEp-2 (human epithelial type 2, CCL-23, ATCC®, Virginia, USA) or McCoy B (mouse fibroblast, CRL-1696, ATCC®) cells were grown to 80–100% confluence, and cell density was determined with a haemocytometer. Cells were then diluted to 1 × 10^5 cells/mL, and 100 µL was added to each well in a 96-well plate, with 3 wells left as controls. Cells were grown for 24 h, and the media was removed and then replaced with fresh media containing 0.1% DMSO and the drug for testing in triplicate. Drugs and cells were incubated for 24 h, and then 20 µL of MTS and PMS solution was added and then incubated for a further four hours. Absorbance was measured at 490 nm on a TECAN M200 Infinite plate reader and data were processed using Microsoft Excel^TM with the following equation to determine cell viability relative to DMSO controls. Cellviability%=AbsorbanceDrug−AbsorbanceDye/AbsorbanceDMSO−AbsorbanceDye

T1 sequence (P18584 17-497): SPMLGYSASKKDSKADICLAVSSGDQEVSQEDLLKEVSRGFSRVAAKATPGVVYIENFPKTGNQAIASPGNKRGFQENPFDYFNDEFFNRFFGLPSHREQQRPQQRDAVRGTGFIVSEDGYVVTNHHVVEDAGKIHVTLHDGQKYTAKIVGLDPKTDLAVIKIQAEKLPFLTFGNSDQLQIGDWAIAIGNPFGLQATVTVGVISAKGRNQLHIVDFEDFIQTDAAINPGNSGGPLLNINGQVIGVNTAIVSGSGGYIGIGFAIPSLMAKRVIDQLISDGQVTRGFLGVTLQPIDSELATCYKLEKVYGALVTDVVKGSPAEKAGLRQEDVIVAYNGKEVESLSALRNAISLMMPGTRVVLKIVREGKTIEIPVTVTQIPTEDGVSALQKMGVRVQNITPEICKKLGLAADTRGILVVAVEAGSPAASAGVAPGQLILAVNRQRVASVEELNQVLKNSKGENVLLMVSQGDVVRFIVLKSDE

SMILES: CCC(C)Oc1oc(=O)c2ccccc2c1Cl (racemic) [Compound 2g, (±)-3-sec-Butoxy-4-chloroisocoumarin]
- Relative Selectivity ([1]; (relative CtHtrA potency)/(relative HLE potency)): 14.6
- IC50 ([1]; Table S2, Batch 2, control JO146): 9.11 µM
- IC50 ([1]; Table S2, Batch 3, control 2g): 34.9 µM
- IC50 ([1]; Table S2, Batch 4, control 2g): 32.3 µM
- IC50 ([1]; Table S2, Batch 5, control 2g): 28 µM
- Relative Potency against CtHtrA ([1]; control JO146): 6.58

SMILES: CCC(C)Oc1oc(=O)c2cc(N)ccc2c1Cl (racemic) [Compound 6a, (±)-7-Amino-4-chloro-3-sec-butoxyisocoumarin]
- effect on HEp-2 cell viability / cytotoxicity ([2]; 125 µM): reduced cell viability slightly
- IC50 ([1]; Table S2, Batch 3, control 2g): 107 µM
- Relative Potency against CtHtrA ([1]; control 2g): 0.326

SMILES: CCC(C)Oc1oc(=O)c2cc(N(C)C)ccc2c1Cl (racemic) [Compound 6b, (±)-7-(Dimethylamino)-3-sec-butoxy-4-chloroisocoumarin]
- effect on HEp-2 cell viability [2]: not found to significantly impact cytotoxicity
- IC50 ([1]; Table S2, Batch 3, control 2g): 309 µM
- Relative Potency against CtHtrA ([1]; control 2g): 0.113

SMILES: CCC(C)Oc1oc(=O)c2cc(NC(C)=O)ccc2c1Cl (racemic) [Compound 6c, (±)-N-(4-Chloro-1-oxo-3-sec-butoxy-isochromen-7-yl)acetamide]
- effect on HEp-2 cell viability [2]: did not significantly affect cell viability
- IC50 ([1]; Table S2, Batch 3, control 2g): 221 µM
- Relative Potency against CtHtrA ([1]; control 2g): 0.158

SMILES: CCC(C)Oc1oc(=O)c2cc(NC(=O)C(F)(F)F)ccc2c1Cl (racemic) [Compound 6d, (±)-N-(4-chloro-1-oxo-3-sec-butoxy-isochromen-7-yl)-2,2,2-trifluoroacetamide]
- effect on HEp-2 cell viability [2]: did not significantly affect cell viability
- IC50 against CtHtrA ([1]; Table S2, Batch 4, control 2g): Not active
- Relative Potency against CtHtrA ([1]; control 2g): <0.001

SMILES: CCC(C)Oc1oc(=O)c2cc(I)ccc2c1Cl (racemic) [Compound 6e, (±)-3-sec-Butoxy-4-chloro-7-iodoisocoumarin]
- cytotoxicity against HEp-2 cells ([2]; 62.5 µM): retained some cytotoxicity
- IC50 against CtHtrA ([1]; Table S2, Batch 4, control 2g): Not active
- Relative Potency against CtHtrA ([1]; control 2g): <0.001

SMILES: CCC(C)Oc1oc(=O)c2cc(OC)ccc2c1Cl (racemic) [Compound 6h, (±)-7-Methoxy-3-sec-butoxy-4-chloroisocoumarin]
- effect on HEp-2 cell viability [2]: did not significantly affect cell viability
- IC50 ([1]; Table S2, Batch 5, control 2g): 152 µM
- Relative Potency against CtHtrA ([1]; control 2g): 0.184

From article PMC11013143, “4-Chloroisocoumarins as Chlamydial Protease Inhibitors and Anti-Chlamydial Agents” (Molecules, 2024)
